In test [1] the test system is human neutrophils. As to the kind of experiment: Assay (c): Arachidonic acid release assay, A23187-stimulated neutrophils. Format: cell-based. To be noted: at levels greater than 10 uM. How it is done: Human neutrophils are obtained in the laboratory using three different methods. One method uses leukophoresis packs from normal humans and neutrophils are isolated using the histopaque-1077 technique. The blood is centrifuged at 300×g for 10 minutes. The cell pellets are resuspended in PBS composed of 137 mM NaCl, 8.8 mM Na2HPO4, 1.5 mM KH2PO4, 2.7 mM KCI (Dulbecco's Gibco Laboratories, Long Island, N.Y.) and layered over histopaque-1077 (Sigma, St. Louis, Mo.). The pellets are collected after centrifugation (300×g for 30 minutes) and washed once in PBS. The cell pellets are exposed briefly to deionized water to lyse any erythrocytes. The remaining cells are collected by centrifugation, suspended in PBS, counted and identified after cytospinning and staining. The final leukocyte preparation will be of greater than 95% purity and viability.
The second method isolates human neutrophils from fresh heparinized normal blood using the Histopaque-1077 technique. […] The remaining cells are collected by centrifugation, suspended in PBS, counted and identified after cytospinning and staining. […]
The third method isolates human neutrophils from freshly drawn heparinized normal blood using the Percoil technique. […] The neutrophils are suspended in PBS, counted and identified after cytospinning and staining. […]

The test system of test [2] is human neutrophils. As to the kind of experiment: Assay (d): Production of platelet-activating factor (PAF), A23187-stimulated neutrophils. The format is cell-based. How it is done:
Blood is obtained from normal humans and neutrophils are isolated as described for the arachidonic acid release assay, above. The final leukocyte preparation should be of greater than 95% purity and viability.
Neutrophils are suspended in PBS at concentrations of 5 to 20×10^6 cells per ml. Cells are added to test tubes and treated with the desired compounds for 5 to 10 minutes, then challenged with calcium ionophore A23187, 2 μM and 20-30 μCi of [3H]acetic acid (NEN-Dupont, Boston, Mass.), or the vehicle of PBS with 0.25-1 mg/ml. After 5 to 20 minutes, the reactions are terminated by addition of an equal volume of chloroform:methanol (1:2, v/v) to the samples and the lipiris are extracted by addition of equal volumes of chloroform and distilled water. The samples are vortexed and centrffuged at high speed and the chloroform layer removed to a clean tube.
The chloroform from each tube is evaporated to dryness and the material suspended in a small volume of chloroform or chloroform:methanol (25-100 μl) and the total material spotted on a Silica TLC plate. The plates are developed in chloroform/methanol/acetic acid/water (50:25:8:4, v/v) visualized by radioscanning (Bioscan) and the product, [^3 H]PAF, is scraped and quantified by liquid scintillation spectroscopy. With this TLC system, the Rf value for a synthetic standard of PAF is approximately 0.33.

Test [3] relates to TPA-induced Mouse Ear Inflammation. As to the kind of experiment: Assay (g): TPA-induced mouse ear inflammation (ear edema, MPO). The format is in vivo. The protocol:
Male Balb/c inbred mice are obtained from Charle River Breeding Laboratories (Kingston, N.Y.). Within a single experiment mice (22-25 g) are age-matched. These in vivo experiments typically involve the use of 5-6 animals/group.
TPA (12-0-tetradecanoylphorbol 13-acetate) (Sigma Chemical Company) in acetone ([…]) is applied to the inner and outer surfaces of the left ear of BALB/c male mice. The thickness of both ears is then measured with a dial micrometer (Mitutoyo, Japan) at both 2 and 4 hours after treatment, and the data expressed as the change in thickness (10^-3 cm) between treated and untreated ears. […] After measuring the edema, the inflammed left ears are removed and stored at -70° C. until they were assayed for MPO (myeloperoxidase) activity where appropriate.
On the day of the assay, partially thawed ear tissues are minced and then homogenized (10% w/v) with a Tissumizer homogenizer (Tekmar Co.) in 50 mM phosphate buffer (pH 6) containing 0.5% HTAB. The tissue homogenates are taken through three cycles of freeze-thaw, followed by brief sonication (10 sec). The method of Bradley et at. is used with modifications as described. […] Supernatant MPO activity is quantified kinetically (change in absorbance measured over 3 min, sampled at 15-sec intervals) using a Beckman DU-7 spectrophotometer and a Kinetics Analysis package (Beckman Instruments, Inc.). One unit of MPO activity is defined as that degrading one micromole of peroxide per minute at 25° C.
Statistical analysis is done using Student's "t" test.

Take `NC(=O)N(O)CCC(CSc1ccc(Cc2ccccc2)cc1)NC(=O)CCCCCCc1ccccc1` (racemic) [Example 1, N-[3-(7-phenylheptylamido)-4-(4-phenylmethyl)phenylthio]-butyl-N-hydroxy urea]: the “inhibitory activity in arachidonic acid release assay” value with human neutrophils [1] is reported as “weak inhibitory activity”. Besides, in the test with human neutrophils [2] (Neutrophil, human neutrophils, A23187), the IC50 – broadly, the point on the concentration scale where inhibition reaches its midpoint – was approximately 10 µM. In addition, in test [3] (topically, 1 mg/ear), the “MPO activity, percent change, TPA ear model” value was -68% and the “ear swelling (edema), percent change, TPA ear model” value is given as -43%. Besides, the “inhibition of inflammatory cell infiltration, TPA ear model” value in test [3] (typically dosed at 50 mg/ear) is given as “demonstrated activity as an inhibitor of the inflammatory cell infiltration”.

As to `N#CCC(CSc1ccc(Cc2ccccc2)cc1)NC(=O)CCCCCCc1ccccc1` (stereo not shown) [Example 2, [3-(7-Phenylheptylamido)-4-(4-phenylmethyl)phenylthio]butylnitrile], the “inhibitory activity in arachidonic acid release assay” value with human neutrophils [1] is reported as “weak inhibitory activity”. Also, the “inhibitory activity in PAF production assay” value in the test with human neutrophils [2] (at greater than 30 uM) is “did not demonstrate positivr activity”.

For the origin of these results see US5496855A, “Anti-inflammatory compounds” (SmithKline Beecham Corp., priority 1995, dated 1996).
